In brackets after ≈: the same amount, converted by molar mass. Where two headings read alike, the source gives them in different places.
What was measured:
Assay type in all cases: cell-based
[1] = system: Micrococcus luteous; experiment: In vitro zone of inhibition screening, MIC, Micrococcus luteous; settings: aqueous solution, seeded Mueller-Hinton agar, 24 hours at 35° C.; for MIC: Micrococcus, read-out: Minimum Inhibitory Concentration, ML
Procedure: (§1) The 2% solutions listed above were diluted further with sterile water, using serial half-step dilutions. Forty lambda of each were then pipetted onto seeded Mueller-Hinton agar plates. The agar plates were then incubated for 24 hours at 35° C. and zones of inhibition were then recorded. The Minimum Inhibitory Concentration (MIC) was the lowest concentration of the test material which produced a zone of inhibition against the organism.
(§2) Stock cutaneous strains of each organism were grown in Mueller-Hinton broth for 18 hours at 35° C. Plates were seeded with the 18 hour broth culture, allowed to air dry at room temperature (about 10 minutes) and then used for determination of zones of inhibition as outlined above.

[2] = system: Staphylococcus aureus; experiment: In vitro zone of inhibition screening, MIC, Staphylococcus aureus; settings: aqueous solution, seeded Mueller-Hinton agar, 24 hours at 35° C.; for MIC: Staphylococcus aureus, read-out: Minimum Inhibitory Concentration, SA
Procedure: as §1, §2

[3] = system: Corenybacterium minutissimum; experiment: In vitro zone of inhibition screening, MIC, Corenybacterium minutissimum
Procedure: as §1, §2

[4] = system: Escherichia coli; experiment: In vitro zone of inhibition screening, MIC, Escherichia coli; settings: for MIC: Escherichia coli
Procedure: as §1, §2

[5] = system: Pseudomonas aeroginosa; experiment: In vitro zone of inhibition screening, MIC, Pseudomonas aeroginosa; settings: for MIC: Pseudomonas
Procedure: as §1, §2

[6] = system: C. albicans; experiment: In vitro antimycotic activity, MIC, C. albicans; settings: for MIC: Candida albicans
Procedure: (§3) A laboratory propagated strain of C. albicans, originally isolated from an infected skin lesion of a patient, was grown in Mueller-Hinton broth for 18 hours at 35° C. Plates were then seeded with the broth culture and allowed to air-dry at room temperature (22° C.) for about 10-15 minutes. Forty lambda of the 2% aqueous solutions or of serial half-step dilutions in water were then pipetted onto the seeded Mueller-Hinton agar plates. The plates were then incubated for 24 hours at 35° C. and zones of inhibition were then recorded. The Minimum Inhibitory Concentration (MIC) was the lowest concentration of the test material which produced a zone of inhibition against the organism. The MIC for each test material (antihistamine) is listed in the enclosed table. Table 2 lists the MIC's against C. albicans while Table 3 lists the MIC's against in vitro-grown spores of the human pathogen T. mentagrophytes. This strain was isolated from a human infection and was grown on Sabourand-Dextrose agar for 2 weeks. The spores were collected by flooding the agar plates after the 2 week growth period with a 0.01% solution of Tween-80 (sorbitol ester) and then filtering the Tween solution through gauze mesh to collect the suspension of spores. Sabourand-Dextrose agar plates are then seeded with the spore suspension. After air-drying, 40 lambda of each test solution is pipetted onto the plates and the plates left to incubate for 4 days at 22° C.

[7] = system: Spores of T. Mentagrophytes; experiment: In vitro antimycotic activity, MIC, spores of T. mentagrophytes; settings: for MIC: Trichophyton mentagrophytes, 96 h; for activity against T. mentagrophytes: in vitro, in words
Procedure: as §3

[8] = system: Cutaneous Bacteria; experiment: In vitro zone of inhibition screening, overall (cutaneous bacteria); settings: for Rank Order: highest inhibition (rank 1) to lowest (rank 5); for minimum inhibitory concentrations as low as: in vitro antibacterial testing, lowest MIC
Procedure: as §1, §2

[9] = aqueous solution, seeded Mueller-Hinton agar, 24 hours at 35° C., read-out: Minimum Inhibitory Concentration, CM
[10] = aqueous solution, seeded Mueller-Hinton agar, 24 hours at 35° C., read-out: Minimum Inhibitory Concentration, EC
[11] = aqueous solution, seeded Mueller-Hinton agar, 24 hours at 35° C., read-out: Minimum Inhibitory Concentration, PA
[12] = aqueous solution, Mueller-Hinton agar, 24 hours at 35° C., read-out: MIC, C. albicans
[13] = aqueous solution, Sabourand-Dextrose agar, 4 days at 22° C., read-out: MIC, spores of T. Mentagrophytes
[14] = aqueous solution, Sabourand-Dextrose agar, 4 days at 22° C.
[15] = aqueous solution, seeded Mueller-Hinton agar, 24 hours at 35° C.
[16] = aqueous solution, Mueller-Hinton agar, 24 hours at 35° C.

Structure (SMILES)	MIC [6, 12] [µg/mL]	MIC [7, 13] [µg/mL]	MIC, spores of T. Mentagrophytes [7, 14]	MIC, C. albicans [6, 16]	MIC [1] [µg/mL]	MIC [2] [µg/mL]	MIC [3, 9] [µg/mL]	MIC [4, 10] [µg/mL]	MIC [5, 11] [µg/mL]	Rank Order [8]	minimum inhibitory concentrations as low as [8]	activity against T. mentagrophytes [7]	also measured
CN(C)CCC(c1ccc(Br)cc1)c1ccccn1 (stereo not shown) [Brompheniramine, brompheniramine]	20000 (≈ 62.6 mM)	20000 (≈ 62.6 mM)			5000 (≈ 15.7 mM)	10000 (≈ 31.3 mM)	3000 (≈ 9.4 mM)	5000 (≈ 15.7 mM)	10000 (≈ 31.3 mM)	2	0.5-1%		
CN(C)CCC(c1ccc(Cl)cc1)c1ccccn1 (stereo not shown) [Chlorpheniramine, chlorpheniramine]	20000 (≈ 72.8 mM)		No inhibition		5000 (≈ 18.2 mM)	10000 (≈ 36.4 mM)	5000 (≈ 18.2 mM)	5000 (≈ 18.2 mM)	10000 (≈ 36.4 mM)	2		ineffective	
CN(C)CCOC(c1ccccc1)c1ccccc1 [Dimenhydrinate, dimenhydrinate]			20000 µg/mL	20000 µg/mL (≈ 78.3 mM)						3	0.5%		Minimum Inhibitory Concentration, ML [1]: 10.0 mg/mL; Minimum Inhibitory Concentration, SA [2]: 10.0 mg/mL; Minimum Inhibitory Concentration, CM [3, 15]: 5.0 mg/mL; Minimum Inhibitory Concentration, EC [4, 15]: 5.0 mg/mL; Minimum Inhibitory Concentration, PA [5, 15]: 10.0 mg/mL
CN(C)CCOC(c1ccccc1)c1ccccc1 [Diphenhydramine, diphenhydramine]										1	0.25%		Minimum Inhibitory Concentration, ML [1]: 2.5 mg/mL; Minimum Inhibitory Concentration, SA [2]: 2.5 mg/mL; MIC ([3]; 24 h, read-out: Minimum Inhibitory Concentration, CM, aqueous solution, seeded Mueller-Hinton agar, 24 hours at 35° C.): 2500 µg/mL (≈ 9.79 mM); MIC ([4]; 24 h, read-out: Minimum Inhibitory Concentration, EC, aqueous solution, seeded Mueller-Hinton agar, 24 hours at 35° C.): 2500 µg/mL (≈ 9.79 mM); MIC ([5]; 24 h, read-out: Minimum Inhibitory Concentration, PA, aqueous solution, seeded Mueller-Hinton agar, 24 hours at 35° C.): 5000 µg/mL (≈ 19.6 mM); MIC ([6]; 24 h, read-out: MIC, C. albicans, aqueous solution, Mueller-Hinton agar, 24 hours at 35° C.): 10000 µg/mL (≈ 39.2 mM); MIC ([7]; read-out: MIC, spores of T. Mentagrophytes, aqueous solution, Sabourand-Dextrose agar, 4 days at 22° C.): 10000 µg/mL (≈ 39.2 mM)

Second part, led by results:

MIC [6, 12] [µg/mL]	MIC [7, 13] [µg/mL]	MIC, spores of T. Mentagrophytes [7, 14]	MIC, C. albicans [6, 16]	Structure (SMILES)	MIC [1] [µg/mL]	MIC [2] [µg/mL]	MIC [3, 9] [µg/mL]	MIC [4, 10] [µg/mL]	MIC [5, 11] [µg/mL]	Rank Order [8]	minimum inhibitory concentrations as low as [8]	activity against T. mentagrophytes [7]	also measured
		No inhibition	No inhibition	CN(C)CCOC(C)(c1ccccc1)c1ccccn1 (stereo not shown) [Doxylamine]						5			
	20000 (≈ 70.1 mM)		No inhibition	COc1ccc(CN(CCN(C)C)c2ccccn2)cc1 [Pyrilamine]			10000 (≈ 35 mM)	10000 (≈ 35 mM)		4		showed activity	
20000 (≈ 78.3 mM)	20000 (≈ 78.3 mM)			CN(C)CCN(Cc1ccccc1)c1ccccn1 [Tripelennamine, tripelennamine]	10000 (≈ 39.2 mM)	10000 (≈ 39.2 mM)	5000 (≈ 19.6 mM)	5000 (≈ 19.6 mM)	10000 (≈ 39.2 mM)	3	0.5-1%		
20000 (≈ 71.8 mM)		No inhibition		Cc1ccc(/C(=C\CN2CCCC2)c2ccccn2)cc1 [Triprolidine, triprolidine]	10000 (≈ 35.9 mM)	10000 (≈ 35.9 mM)	5000 (≈ 18 mM)	5000 (≈ 18 mM)	10000 (≈ 35.9 mM)	3	0.5-1%	ineffective	

Source: patent publication US4873265A, “Anti-infective methods and compositions” (priority 1988, dated 1989)
